We go through 25 compounds from patent US10807952B2 (Achillion Pharmaceuticals, Inc., priority 2015, dated 2020).

The IC50 is the concentration that inhibits the measured activity by half. A high value points to weaker potency.

Structures can show the parent of a compound that is named as a salt.

Chain of Human Factor D (P00746 26-253): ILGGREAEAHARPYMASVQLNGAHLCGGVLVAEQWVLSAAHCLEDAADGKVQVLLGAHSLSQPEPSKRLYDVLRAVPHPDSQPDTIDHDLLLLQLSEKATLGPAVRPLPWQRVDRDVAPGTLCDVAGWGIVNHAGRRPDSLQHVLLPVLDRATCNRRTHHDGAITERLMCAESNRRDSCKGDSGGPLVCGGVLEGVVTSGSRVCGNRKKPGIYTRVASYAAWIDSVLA

The target of the first test is Human Factor D (Homo sapiens (Human), UniProt P00746). Nature of the test: Human Factor D assay (Z-L-Lys-SBzl / DTNB, absorbance at 405 nm). The test is classed as biochemical. To be noted: Table 3; Human Factor D 80 nM, assay of Example 13. The protocol:
Human Factor D (purified from human serum, Complement Technology, Inc.) at 80 nM final concentration was incubated with test compound at various concentrations for 5 minutes at room temperature in 50 mM Tris, 1M NaCl, pH 7.5. A synthetic substrate Z-L-Lys-SBzl and DTNB (Ellman's reagent) were added to final concentrations of 100 μM each. […] IC50 values were calculated by nonlinear regression of complement Factor D reaction rates as a function of test compound concentration.
In turn, `NC(=O)c1nn(CC(=O)N2C[C@H](F)C[C@H]2C(=O)Nc2cccc(-c3ccc4cn[nH]c4c3Cl)c2F)c2ccccc12` [Compound 47] displayed an IC50 below 1000 nM.
On the same count and under the same terms, the same measure for `COc1cc(Br)cc(CC(=O)N2C[C@H](F)C[C@H]2C(=O)Nc2cccc(-c3ccccc3Cl)c2F)c1` [Compound 48, (2S,4R)-1-(2-(3-bromo-5-methoxyphenyl)acetyl)-N-(2′-chloro-2-fluorobiphenyl-3-yl)-4-fluoropyrrolidine-2-carboxamide]: below 1000 nM; for `Cc1cc2c(s1)c(C(N)=O)nn2CC(=O)N1C[C@H](F)C[C@H]1C(=O)Nc1cccc(-c2cc(C(N)=O)ccc2Cl)c1F` [Compound 49, 1-(2-((2S,4R)-2-(5′-carbamoyl-2′-chloro-2-fluorobiphenyl-3-ylcarbamoyl)-4-fluoropyrrolidin-1-yl)-2-oxoethyl)-5-methyl-1H-thieno[3,2-c]pyrazole-3-carboxamide]: below 1000 nM; for `NC(=O)c1nn(CC(=O)N2C[C@H](F)C[C@H]2C(=O)Nc2cccc(-c3cnc4nc[nH]c4c3Cl)c2F)c2ccccc12` [Compound 50, 1-(2-((2S,4R)-2-(3-(7-chloro-1H-imidazo[4,5-b]pyridin-6-yl)-2-fluorophenyl-carbamoyl)-4-fluoropyrrolidin-1-yl)-2-oxoethyl)-1H-indazole-3-carboxamide]: below 1000 nM.
Still for that read-out and setting: the figure for `CC(C)(C)OC(=O)NCC(=O)c1ccc(Cl)c(-c2cccc(NC(=O)[C@@H]3C[C@@H](F)CN3C(=O)Cn3nc(C(N)=O)c4ccccc43)c2F)c1` [Compound 51, tert-butyl 2-(3′-((2S,4R)-1-(2-(3-carbamoyl-1H-indazol-1-yl)acetyl)-4-fluoropyrrolidine-2-carboxamido)-6-chloro-2′-fluorobiphenyl-3-yl)-2-oxoethylcarbamate] is below 1000 nM; for `NC(=O)c1nn(CC(=O)N2C[C@H](F)C[C@H]2C(=O)Nc2cccc(-c3ccc4scnc4c3)c2F)c2ccccc12` [Compound 52, 1-(2-((2S,4R)-2-(3-(benzo[d]thiazol-5-yl)-2-fluorophenyl-carbamoyl)-4-fluoropyrrolidin-1-yl)-2-oxoethyl)-1H-indazole-3-carboxamide] it is below 1000 nM.
Compound `NC(=O)c1cn(CC(=O)N2CCC[C@H]2C(=O)Nc2cccc(-c3ccccc3Cl)c2F)n2ccnc12` [Compound 54] displayed an IC50 above 10000 nM.
The same measure, in the same setting: the same measure for `NC(=O)c1cn(CC(=O)N2C[C@H](F)C[C@H]2C(=O)Nc2cccc(Br)n2)n2ccnc12` [Compound 55, 5-(2-((2S,4R)-2-(6-bromopyridin-2-ylcarbamoyl)-4-fluoropyrrolidin-1-yl)-2-oxoethyl)-5H-imidazo[1,2-b]pyrazole-7-carboxamide]: above 10000 nM.
As for `NC(=O)c1nn(CC(=O)N2C[C@H](F)C[C@H]2C(=O)Nc2cccc(-c3ccc4ocnc4c3)c2F)c2ccccc12` [Compound 57, 1-(2-((2S,4R)-2-(3-(benzo[d]oxazol-5-yl)-2-fluorophenyl-carbamoyl)-4-fluoropyrrolidin-1-yl)-2-oxoethyl)-1H-indazole-3-carboxamide], the IC50 is below 1000 nM.
In turn, `NC(=O)c1cn(CC(=O)N2C[C@H](F)C[C@H]2C(=O)Nc2cccc(-c3ccccc3Cl)c2F)n2ccnc12` [Compound 58, 5-(2-((2S,4R)-2-(2′-chloro-2-fluorobiphenyl-3-ylcarbamoyl)-4-fluoropyrrolidin-1-yl)-2-oxoethyl)-5H-imidazo[1,2-b]pyrazole-7-carboxamide] had a concentration for half-maximal inhibition (IC50) of 1000 to 10000 nM.
As to `NC(=O)c1nn(CC(=O)N2C[C@H](F)C[C@H]2C(=O)Nc2cccc(-c3ccc4c(c3Cl)NC(=O)CN4)c2F)c2ccccc12` [Compound 59, 1-(2-((2S,4R)-2-((3-(5-Chloro-3-oxo-1,2,3,4-tetrahydroquinoxalin-6-yl)-2-fluorophenyl)carbamoyl)-4-fluoropyrrolidin-1-yl)-2-oxoethyl)-1H-indazole-3-carboxamide], the half-inhibitory concentration (IC50) is below 1000 nM.
Regarding `CC(=O)n1cc(CC(=O)N2C[C@H](F)C[C@H]2C(=O)Nc2cccc(-c3ccccc3Cl)c2F)c2ccc(-c3cnc(C)nc3)cc21` [Compound 60, (2S,4R)-1-(2-(1-acetyl-6-(2-methylpyrimidin-5-yl)-1H-indol-3-yl)acetyl)-N-(2′-chloro-2-fluorobiphenyl-3-yl)-4-fluoropyrrolidine-2-carboxamide], the IC50 is below 1000 nM.
The compound `CC(=O)n1cc(CC(=O)N2C[C@H](F)C[C@H]2C(=O)Nc2cccc(Br)n2)c2ccc(-c3cnc(C)nc3)cc21` [Compound 61, (2S,4R)-1-(2-(1-acetyl-6-(2-methylpyrimidin-5-yl)-1H-indol-3-yl)acetyl)-N-(6-bromopyridin-2-yl)-4-fluoropyrrolidine-2-carboxamide] showed a half-inhibitory concentration (IC50) below 1000 nM.
Same read-out and setting: the figure for `NC(=O)c1nn(CC(=O)N2C[C@H](F)C[C@H]2C(=O)Nc2cccc(-c3ccc4nc(C(=O)O)[nH]c4c3Cl)c2F)c2ccccc12` [Compound 62, 6-(3-((2S,4R)-1-(2-(3-carbamoyl-1H-indazol-1-yl)acetyl)-4-fluoropyrrolidine-2-carboxamido)-2-fluorophenyl)-7-chloro-1H-benzo[d]imidazole-2-carboxylic acid] is below 1000 nM.
Still for that read-out and setting: the figure for `CC(C)(C)OC(=O)N=S(C)(=O)c1cccc(-c2cccc(NC(=O)[C@@H]3C[C@@H](F)CN3C(=O)Cn3nc(C(N)=O)c4ccccc43)c2F)c1` (stereo partly drawn) [Compound 64, tert-butyl ((3′-((2S,4R)-1-(2-(3-carbamoyl-1H-indazol-1-yl)acetyl)-4-fluoropyrrolidine-2-carboxamido)-2′-fluoro-[1,1′-biphenyl]-3-yl)(methyl)(oxo)-[…]^6-sulfanylidene)-[…]^4-azanecarboxylate] is 1000 to 10000 nM; for `CS(=N)(=O)c1cccc(-c2cccc(NC(=O)[C@@H]3C[C@@H](F)CN3C(=O)Cn3nc(C(N)=O)c4ccccc43)c2F)c1` (stereo partly drawn) [Compound 65, 1-(2-((2S,4R)-4-fluoro-2-(2-fluoro-3′-(S-methylsulfonimidoyl)biphenyl-3-ylcarbamoyl)pyrrolidin-1-yl)-2-oxoethyl)-1H-indazole-3-carboxamide] it is 1000 to 10000 nM; for `NC(=O)c1nn(CC(=O)N2C[C@H](F)C[C@H]2C(=O)Nc2cccc(-c3ccccc3Cl)c2F)c2cn[nH]c12` [Compound 66, 1-(2-((2S,4R)-2-(2′-chloro-2-fluorobiphenyl-3-ylcarbamoyl)-4-fluoropyrrolidin-1-yl)-2-oxoethyl)-1,4-dihydropyrazolo[4,3-c]pyrazole-3-carboxamide] it is below 1000 nM.
Take `NC(=O)c1nn(CC(=O)N2C[C@H](F)C[C@H]2C(=O)Nc2cccc(-c3ccc4nonc4c3)c2F)c2ccccc12` [Compound 68, 1-(2-((2S,4R)-2-(3-(benzo[c][1,2,5]oxadiazol-5-yl)-2-fluorophenyl-carbamoyl)-4-fluoropyrrolidin-1-yl)-2-oxoethyl)-1H-indazole-3-carboxamide]: the concentration for half-maximal inhibition (IC50) was below 1000 nM.
On the same count and under the same terms, the same measure for `CC(=O)c1cn(CC(=O)N2C[C@H](F)C[C@H]2C(=O)Nc2cccc(Br)n2)c2ccc(S(C)(=O)=NC(=O)OC(C)(C)C)cc12` (stereo partly drawn) [Compound 69, tert-butyl ((3-acetyl-1-(2-((2S,4R)-2-((6-bromopyridin-2-yl)carbamoyl)-4-fluoropyrrolidin-1-yl)-2-oxoethyl)-1H-indol-5-yl)(methyl)(oxo)-[…]^6-sulfanylidene)-[…]^4-azanecarboxylate e( )]: below 1000 nM; for `CC(=O)c1cn(CC(=O)N2C[C@H](F)C[C@H]2C(=O)Nc2cccc(Br)n2)c2ccc(S(C)(=N)=O)cc12` (stereo partly drawn) [Compound 70, (2S,4R)-1-(2-(3-Acetyl-5-(S-methylsulfonimidoyl)-1H-indol-1-yl)acetyl)-N-(6-bromopyridin-2-yl)-4-fluoropyrrolidine-2-carboxamide hydrochloride]: below 1000 nM.
With `NC(=O)c1nn(CC(=O)N2C[C@H](F)C[C@H]2C(=O)Nc2cccc(-c3n[nH]c4ccsc34)c2F)c2ccccc12` [Compound 71, 1-(2-((2S,4R)-4-Fluoro-2-((2-fluoro-3-(1H-thieno[3,2-c]pyrazol-3-yl)phenyl)carbamoyl)pyrrolidin-1-yl)-2-oxoethyl)-1H-indazole-3-carboxamide], the half-inhibitory concentration (IC50) was below 1000 nM.
Same read-out and setting: the figure for `Cc1cc2c(s1)c(C(=N)N)nn2CC(=O)N1C[C@H](F)C[C@H]1C(=O)Nc1cccc(-c2ccccc2Cl)c1F` [Compound 73, (2S,4R)-1-(2-(3-carbamimidoyl-5-methyl-1H-thieno[3,2-c]pyrazol-1-yl)acetyl)-N-(2′-chloro-2-fluorobiphenyl-3-yl)-4-fluoropyrrolidine-2-carboxamide] is below 1000 nM.

The same test, now with this note: Table 4; Human Factor D 80 nM, assay of Example 13.
In turn, `COC(=O)c1cc(-c2cccc(NC(=O)[C@@H]3C[C@@H](F)CN3C(=O)Cn3nc(C(N)=O)c4ccccc43)c2F)cc2[nH]c(NC(=O)OC(C)(C)C)nc12` [Compound 75, methyl 2-((tert-butoxycarbonyl)amino)-6-(3-((2S,4R)-1-(2-(3-carbamoyl-1H-indazol-1-yl)acetyl)-4-fluoropyrrolidine-2-carboxamido)-2-fluorophenyl)-1H-benzo[d]imidazole-4-carboxylate] had a concentration for half-maximal inhibition (IC50) above 10000 nM.
Consider `COC(=O)c1cc(-c2cccc(NC(=O)[C@@H]3C[C@@H](F)CN3C(=O)Cn3nc(C(N)=O)c4ccccc43)c2F)cc2[nH]c(N)nc12` [Compound 76, methyl 2-amino-6-(3-((2S,4R)-1-(2-(3-carbamoyl-1H-indazol-1-yl)acetyl)-4-fluoropyrrolidine-2-carboxamido)-2-fluorophenyl)-1H-benzo[d]imidazole-4-carboxylate], for which the half-maximal inhibitory concentration (IC50) was below 1000 nM.
The compound `NC(=O)c1nn(CC(=O)N2C[C@H](F)C[C@H]2C(=O)Nc2cccc(-c3cc(C(=O)O)c4nc(N)[nH]c4c3)c2F)c2ccccc12` [Compound 77, 2-Amino-6-(3-((2S,4R)-1-(2-(3-carbamoyl-1H-indazol-1-yl)acetyl)-4-fluoropyrrolidine-2-carboxamido)-2-fluorophenyl)-1H-benzo[d]imidazole-4-carboxylic acid hydrochloride] yielded a concentration for half-maximal inhibition (IC50) of 1000 to 10000 nM.
